Data from patent US20230399287A1, “NOVEL COMPOUNDS” (Sitryx Therapeutics Limited, priority 2020, published 2023).

How the values were obtained:
IL-6 = assay: THP-1 AlphaLISA IL-6 cytokine assay; assay type: cell-based; settings: Homo sapiens, THP-1, differentiated THP-1 cells, LPS 24 hr then Nigericin 1 hour
Method: (§1) Measuring Inhibitory Effects on IL-1V and IL-6 Cytokine Output from THP-1s
(§2) The cytokine inhibition profiles of compounds of formula (I) were determined in a differentiated THP-1 cell assay. All assays were performed in RPMI-1640 growth medium (Gibco), supplemented with 10% fetal bovine serum (FBS; Gibco), 1% penicillin-streptomycin and 1% sodium pyruvate unless specified otherwise. The IL-1β and IL-6 cytokine inhibition assays were run in a background of differentiated THP-1 cells as described below. All reagents described were from Sigma-Aldrich unless specified otherwise. Compounds were prepared as 10 mM DMSO stocks.
(§3) THP-1 cells were expanded as a suspension up to 80% confluence in appropriate growth medium. Cells were harvested, suspended, and treated with an appropriate concentration of phorbol 12-myristate 13-acetate (PMA) over a 72 hr period (37° C./5% CO2).
(§4) Following 72 hrs of THP-1 cell incubation, cellular medium was removed and replaced with fresh growth media containing 1% of FBS. Working concentrations of compounds were prepared separately in 10% FBS treated growth medium and pre-incubated with the cells for 30 minutes (37° C./5% CO2). Following the 30 minute compound pre-incubation, THP-1s were treated with an appropriate concentration of LPS and the THP-1s were subsequently incubated for a 24 hr period (37° C./5% CO2). An appropriate final concentration of Nigericin was then dispensed into the THP-1 plates and incubated for 1 hour (37° C./5% CO2) before THP-1 supernatants were harvested and collected in separate polypropylene 96-well holding plates.
(§5) Reagents from each of the IL-1β and IL-6 commercial kits (Perkin Elmer) were prepared and run according to the manufacturer's instructions. Subsequently, fluorescence signal detection in a microplate reader was measured (EnVision® Multilabel Reader, Perkin Elmer).
(§6) Percentage inhibition was calculated per cytokine by normalising the sample data to the high and low controls used within each plate (+/−LPS respectively). Percentage inhibition was then plotted against compound concentration and the 50% inhibitory concentration ([…]) was determined from the resultant concentration-response curve.

hepatocytes [1] = assay: Hepatocyte stability assay (human); assay type: in vitro ADME; settings: 10 μM compound, 60 min
From the text: (§7) Defrosted cryo-preserved hepatocytes (viability>70%) were used to determine the metabolic stability of a compound via calculation of intrinsic clearance (Clint; a measure of the removal of a compound from the liver in the absence of blood flow and cell binding). Clearance data are particularly important for in vitro work as they can be used in combination with in vivo data to predict the half-life and oral bioavailability of a drug.
(§8) The metabolic stability in hepatocytes assay involved a time-dependent reaction using both positive and negative controls. The cells must be pre-incubated at 37° C. then spiked with test compound (and positive control); samples taken at pre-determined time intervals were analysed to monitor the change in concentration of the initial drug compound over 60 minutes. A buffer incubation reaction (with no hepatocytes present) acted as a negative control and two cocktail solutions, containing compounds with known high and low clearance values (verapamil/7-hydroxycoumarin and propranolol/diltiazem), acted as positive controls. • 1. The assay was run with a cell concentration of 0.5×10^6 cells/mL in Leibovitz buffer. • 2. All compounds and controls were run in duplicate. • 3. Compound concentration was 10 μM. • 4. All compounds and controls were incubated with both cells and buffer to show turnover is due to hepatic metabolism. • 5. All wells on the incubation plate had 326.7 μL of either cells or buffer added. • 6. Prior to assay, cell and buffer-only incubation plates were preincubated for 10 mins at 37° C. • 7. The assay was initiated by adding compounds, 3.3 μL of 1 mM in 10% DMSO-90% Buffer; final DMSO concentration is 0.1%. • 8. Samples were taken at regular timepoints (0, 5, 10, 20, 40, 60 min) until 60 mins. • 9. Sample volume was 40 μL and added to 160 μL of crash solvent (acetonitrile with internal standard) and stored on ice. • 10. At the end of the assay, the crash plates were centrifuged at 3500 rpm for 20 mins at 4° C. • 11. 80 μL of clear supernatant was removed and mixed with 80 μL of deionised water before being analysed by LC-MS/MS.
(§9) Raw LC-MS/MS data were exported to, and analysed in, Microsoft Excel for determination of intrinsic clearance. The percentage remaining of a compound was monitored using the peak area of the initial concentration as 100%. Intrinsic clearance and half-life values were calculated using a graph of the natural log of percentage remaining versus the time of reaction in minutes. Half-life (min) and intrinsic clearance (Clint in μL min^−1 10^−6 cells) values were calculated using the gradient of the graph (the elimination rate constant, k) and Equations 1 and 2.

[2] = Hepatocyte stability assay (human); assay type: in vitro ADME; settings: human, cryopreserved hepatocytes, 10 μM compound, 60 min, read-out: T½
From the text: as §7, §8, §9

hepatocytes [3] = assay: Hepatocyte stability assay (mouse); assay type: in vitro ADME; settings: 10 μM compound, 60 min
From the text: as §7, §8, §9

[4] = Hepatocyte stability assay (mouse); assay type: in vitro ADME; settings: mouse, cryopreserved hepatocytes, 10 μM compound, 60 min, read-out: T½
From the text: as §7, §8, §9

IL-1β = assay: THP-1 AlphaLISA IL-1β cytokine assay; assay type: cell-based; settings: Homo sapiens, THP-1, differentiated THP-1 cells
Method: as §1, §2, §3, §4, §5, §6

NRF2 = NRF2 +/- GSH activation assay (DiscoverX PathHunter NRF2 translocation kit); assay type: cell-based; settings: for Emax: normalised to dimethyl fumarate high control; for EC50: Homo sapiens, U2OS, U2OS PathHunter cells
[5] = LPS 24 hr then Nigericin 1 hour

Row | EC50 (NRF2; +GSH) [µM] | EC50 (NRF2; −GSH) [µM] | Structure (SMILES) | IC50 (IL-6) [µM] | Clint (hepatocytes [1]) [μL min^−1 10^−6 cells] | half-life at 10 μM [2] [h] | Clint (hepatocytes [3]) [μL min^−1 10^−6 cells] | half-life at 10 μM [4] [h] | IC50 (IL-1β; [5]) [µM] | Emax (NRF2; +GSH) [%] | Emax (NRF2; −GSH) [%] | IC50 (IL-1β; data from repeated experiments) [µM]
1 | – | – | C=C(CC(=O)OC1(c2ccc(C(F)(F)F)cc2)CC(C)C1)C(=O)O (single isomer, unassigned) [Example 44, 4-(3-methyl-1-(4-(trifluoromethyl)phenyl)cyclobutoxy)-2-methylene-4-oxobutanoic acid] | > 100 | <3 | > 7.67 | 9 | 2.33 | 5.1 | – | – | –
2 | > 100 | > 100 | C=C(CC(=O)O[C@@H](C)c1ccc(C(F)(F)F)cc1)C(=O)O [Example 4, (S)-2-methylene-4-oxo-4-(1-(4-(trifluoromethyl)phenyl)ethoxy)butanoic acid] | > 56.2 | 10 | 2.45 | – | – | 1.9 | 0 | 4 | –
3 | – | – | C=C(CC(=O)OC1(c2ccc(Br)cc2)CCC1)C(=O)O [Example 5, 4-(1-(4-bromophenyl)cyclobutoxy)-2-methylene-4-oxobutanoic acid] | > 31.6 | 15 | 1.48 | 25 | 1.13 | 0.7 | – | – | –
4 | – | – | C=C(CC(=O)OC1(c2ccc(C(F)(F)F)c(F)c2)CCC1)C(=O)O [Example 17, 4-(1-(3-fluoro-4-(trifluoromethyl)phenyl)cyclobutoxy)-2-methylene-4-oxobutanoic acid] | > 31.6 | 11 | 2.62 | 9 | 3.53 | 2 | – | – | –
5 | – | – | C=C(CC(=O)OC1(c2ccc(S(F)(F)(F)(F)F)cc2)CCC1)C(=O)O [Example 18, 2-methylene-4-oxo-4-(1-(4-(pentafluoro-λ^6-sulfaneyl)phenyl)cyclobutoxy)butanoic acid] | 62.1 | 8 | 3.63 | 50 | 0.633 | 1.8 | – | – | –
6 | – | – | C=C(CC(=O)OC1(c2ccc(C(C)(F)F)cc2)CCC1)C(=O)O [Example 19, 4-(1-(4-(1,1-difluoroethyl)phenyl)cyclobutoxy)-2-methylene-4-oxobutanoic acid] | > 68.1 | 4 | 7.45 | 23 | 1.35 | 1.2 | – | – | –
7 | – | – | C=C(CC(=O)OC1(c2ccc(C(F)F)cc2)CCC1)C(=O)O [Example 20, 4-(1-(4-(difluoromethyl)phenyl)cyclobutoxy)-2-methylene-4-oxobutanoic acid] | 48.7 | 4 | 7.45 | 13 | 2.33 | 3 | – | – | –
8 | – | – | C=C(CC(=O)OC1(c2ccc(C(F)(F)F)nc2)CCC1)C(=O)O [Example 22, 2-methylene-4-oxo-4-(1-(6-(trifluoromethyl)pyridin-3-yl)cyclobutoxy)butanoic acid] | > 100 | <3 | > 7.67 | 4 | 8.87 | 5.1 | – | – | –
9 | – | – | C=C(CC(=O)OC1(c2ccc(Br)cc2)COC1)C(=O)O [Example 23, 4-((3-(4-bromophenyl)oxetan-3-yl)oxy)-2-methylene-4-oxobutanoic acid] | > 100 | <3 | > 7.67 | 12 | 2.1 | 1.4 | – | – | –
10 | – | – | C=C(CC(=O)OC1(c2ccc(C(F)(F)F)cc2)COC1)C(=O)O [Example 24, 2-methylene-4-oxo-4-((3-(4-(trifluoromethyl)phenyl)oxetan-3-yl)oxy)butanoic acid] | > 100 | <3 | > 7.67 | 11 | 2.42 | 1.4 | – | – | –
11 | – | – | C=C(CC(=O)OC1(c2ccc(C#N)cc2)CCC1)C(=O)O [Example 25, 4-(1-(4-cyanophenyl)cyclobutoxy)-2-methylene-4-oxobutanoic acid] | > 100 | 4 | 5.65 | 9 | 2.95 | 15.5 | – | – | –
12 | – | – | C=C(CC(=O)OC1(c2ccc(C(F)(F)F)cn2)CCC1)C(=O)O [Example 27, 2-methylene-4-oxo-4-(1-(5-(trifluoromethyl)pyridin-2-yl)cyclobutoxy)butanoic acid] | > 100 | <3 | > 7.67 | <3 | > 7.67 | 1.4 | – | – | 4
13 | – | – | C=C(CC(=O)OC1(c2ccc(C(F)(F)F)cc2)CC(F)(F)C1)C(=O)O [Example 29, 4-(3,3-difluoro-1-(4-(trifluoromethyl)phenyl)cyclobutoxy)-2-methylene-4-oxobutanoic acid] | > 100 | 11 | 2.38 | 20 | 1.32 | 1.3 | – | – | –
14 | – | – | C=C(C(=O)O)C(C)(C)C(=O)OC1(c2ccc(C(F)(F)F)cc2)CCC1 [Example 30, 3,3-dimethyl-2-methylene-4-oxo-4-(1-(4-(trifluoromethyl)phenyl)cyclobutoxy) butanoic acid] | > 100 | 41 | 0.617 | 104 | 0.25 | 1.2 | – | – | –
15 | – | – | C=C(CC(=O)OC1(c2ccc(C(F)(F)C(F)(F)F)cc2)CCC1)C(=O)O [Example 31, 2-methylene-4-oxo-4-(1-(4-(perfluoroethyl)phenyl)cyclobutoxy)butanoic acid] | > 100 | 11 | 2.33 | 38 | 0.7 | 3.4 | – | – | –
16 | – | – | C=C(CC(=O)OC1(c2ccc(C(F)(F)F)s2)CCC1)C(=O)O [Example 32, 2-methylene-4-oxo-4-(1-(5-(trifluoromethyl)thiophen-2-yl)cyclobutoxy)butanoic acid] | > 100 | 17 | 1.53 | 21 | 1.27 | 5.2 | – | – | –
